Measurements taken from patent publication US8541410B2, “Sulfur substituted sulfonylaminocarboxylic acid N-arylamides, their preparation, their use and pharmaceutical preparations comprising them” (Sanofi-aventis Deutschland GmbH, priority 1998, dated 2013).
pIC50: −log10 of the molar value.

Assays:
[1] = target: T1, soluble guanylate cyclase (sGC) (Bos taurus, UniProt P16068); assay: Activation of the soluble guanylate cyclase (cGMP enzyme immunoassay); format: biochemical, bovine; conditions: concentration c 50 μM; n-fold stimulation of basal enzyme activity
T1 construct: The sGC which was employed had been isolated from bovine lung; from tissue; host or cells: bovine lung
T1 sequence (P16068 1-619): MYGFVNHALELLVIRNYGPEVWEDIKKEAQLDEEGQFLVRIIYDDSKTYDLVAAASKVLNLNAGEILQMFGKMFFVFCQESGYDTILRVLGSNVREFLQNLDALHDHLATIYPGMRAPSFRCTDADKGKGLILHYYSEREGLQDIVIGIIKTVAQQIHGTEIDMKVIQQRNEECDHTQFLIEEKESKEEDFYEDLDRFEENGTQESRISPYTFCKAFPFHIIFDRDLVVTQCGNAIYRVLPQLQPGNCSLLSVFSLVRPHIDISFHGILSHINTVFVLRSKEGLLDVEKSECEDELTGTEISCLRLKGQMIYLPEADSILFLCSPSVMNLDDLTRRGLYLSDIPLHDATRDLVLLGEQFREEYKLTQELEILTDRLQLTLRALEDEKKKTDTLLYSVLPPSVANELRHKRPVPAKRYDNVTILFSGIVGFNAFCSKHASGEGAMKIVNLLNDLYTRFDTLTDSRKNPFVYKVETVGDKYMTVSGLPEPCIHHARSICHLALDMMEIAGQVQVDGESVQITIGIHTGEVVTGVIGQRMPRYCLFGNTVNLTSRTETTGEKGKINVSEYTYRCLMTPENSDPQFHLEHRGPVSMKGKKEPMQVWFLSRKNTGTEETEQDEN
T1 sequence (P19687 1-691 partner): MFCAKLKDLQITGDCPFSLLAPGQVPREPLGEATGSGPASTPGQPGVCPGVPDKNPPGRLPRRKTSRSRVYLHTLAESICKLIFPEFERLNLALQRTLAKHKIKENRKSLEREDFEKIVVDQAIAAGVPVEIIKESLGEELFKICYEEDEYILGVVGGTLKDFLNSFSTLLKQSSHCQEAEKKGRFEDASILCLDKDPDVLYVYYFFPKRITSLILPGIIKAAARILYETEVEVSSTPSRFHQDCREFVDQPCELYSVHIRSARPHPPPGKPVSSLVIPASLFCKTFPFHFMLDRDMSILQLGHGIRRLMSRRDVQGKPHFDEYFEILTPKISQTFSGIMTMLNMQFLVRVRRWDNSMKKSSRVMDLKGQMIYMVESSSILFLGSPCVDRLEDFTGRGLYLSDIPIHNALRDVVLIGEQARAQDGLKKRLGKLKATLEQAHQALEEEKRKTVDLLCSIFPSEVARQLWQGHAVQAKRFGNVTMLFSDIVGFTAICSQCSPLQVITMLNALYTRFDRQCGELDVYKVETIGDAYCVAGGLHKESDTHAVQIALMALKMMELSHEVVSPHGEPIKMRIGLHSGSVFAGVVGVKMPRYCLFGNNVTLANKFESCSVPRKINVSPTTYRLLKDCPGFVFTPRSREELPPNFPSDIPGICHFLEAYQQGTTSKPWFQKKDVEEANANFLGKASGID

rat aorta rings = assay: Relaxation of rat aorta (phenylephrine-precontracted rings); format: cell-based, rat (Wistar-Kyoto); conditions: 50% relaxation of phenylephrine (1 μM) contraction
Description: For this test, normotensive male Wistar-Kyoto rats were sacrificed by a blow to the neck. The abdominal cavity and the thorax were opened by a medium stemotomy. The descending aorta was subsequently removed, freed of connective tissue and divided into 8 rings of a length of approximately 4 mm. The tip of a pair of tweezers was introduced into the lumen of 4 of the 8 rings. The endothelium was removed by carefully rolling the rings over the tip of the pair of tweezers. All 8 aorta rings (4 with endothelium and 4 without endothelium) were subsequently suspended in an organ bath (Schuler-Organbad; Hugo Sachs Elektronik) at a constant temperature of 37° C. for the isometric determination of the contractile tone. For 30 minutes, the rings were calibrated at a resting tension of 0.1 g in carbonated (95% O2; 5% CO2) Krebs-Henseleit solution (composition: Na^+ 144.0 mM; K^+ 5.9 mM; Cl^− 126.9 mM; Ca^2+ 1.6 mM; […] 1.2 mM; H2PO4^− 1.2 mM; SO4^2− 1.2 mM; HCO3^− 25.0 mM; D-glucose 11.1 mM) of pH 7.4. Additionally, 1 μmol/l of indomethacin were added to the Krebs-Henseleit solution to inhibit prostaglandin biosynthesis. The rings were subsequently precontracted by addition of phenylephrine (concentration in the solution: 1 μM) and the endothelium-dependent relaxation or the functional loss of the endothelium was tested by addition of acetylcholine (concentration in the solution: 1 μM). After a 30-minute washing period, the rings were then again precontracted by addition of phenylephrine (1 μM), and the relaxing action of the test substances of the formula I was determined by administration of cumulative doses of the latter. The data were evaluated by standard methods. Given is the concentration IC50 by which contraction is inhibited by 50% (50% relaxation).

pig = assay: Hemodynamic effect in the pig; format: in vivo, pig (German landrace); conditions: 10 mg/kg i.d., anesthetized pigs
Protocol: Three pigs (German landrace) were anesthetized (Ketamine 20 mg/kg i.m., Methomidate 8 mg/kg i.p., Xylazine 2.5 mg/kg i.m. and Pentobarbital 25 mg/kg i.v. as a bolus plus 0.16 mg/kg per minute). The trachea was intubated and the animals were given artificial respiration with air. Oxygen was added to keep the blood gas parameters in the normal range. To record the blood pressure (BP; BP(s)=systolic blood pressure, BP(d)=diastolic blood pressure) by means of a Statham 23 Db pressure transducer a catheter was inserted into the right A. Femoralis. The left ventricular pressure (LVP), the left ventricular end-diastolic pressure (LVEDP), the contractility (dP/dt) and the heart rate (HR) were determined with a Millar PC 350 catheter “tip manometer” which was inserted into the […] ventricle. After a stabilization period of the hemodynamic parameters of 30 minutes the test substance was administered in the indicated dose into the exposed duodenum by means of a catheter. The determined data were evaluated according to standard methods. Given are the means and the standard deviations (M±SEM) of the starting values and of the maximal changes of the individual parameters (=maximal effects).

COc1cc(NS(=O)(=O)c2ccc(Cl)cc2)c(C(=O)Nc2ccc(S(=O)(=O)N3C[C@@H](C)O[C@@H](C)C3)cc2)cc1OC [Example 88, 2-(4-Chloro-phenylsulfonylamino)-N-(4-(cis-2,6-dimethyl-morpholine-4-sulfonyl)-phenyl)-4,5-dimethoxy-benzamide]
n-fold stimulation [1]: 24.4
pIC50 (rat aorta rings; ring with endothelium): 6.17
pIC50 (rat aorta rings; ring without endothelium): 6.54
BP(d) duration of action (pig): >0.125 days
BP(s) duration of action (pig): >10800 s
HR duration of action (pig): >180 min
LVEDP duration of action (pig): >180 min
dP/dtmax duration of action (pig): >180 min
dP/dtmax maximal alteration (pig; contractility, M±SEM): −633 ± 33 mm Hg/sec
BP(d) maximal alteration (pig; diastolic blood pressure, M±SEM): −20 ± 8 mm Hg
HR maximal alteration (pig; heart rate, M±SEM): −8 ± 2 beats/min
LVEDP maximal alteration (pig; left ventricular end-diastolic pressure, M±SEM): −1.3 ± 0.3 mm Hg
BP(s) maximal alteration (pig; systolic blood pressure, M±SEM): −23 ± 6 mm Hg
